# According to patent US9458132B2, “Therapeutic compounds and compositions and their use as PKM2 modulators” (AGIOS PHARMACEUTICALS, INC., priority 2012, dated 2016):
# Legend:
# Format in all cases: biochemical
# PKR R532W = PKR R532W (Homo sapiens, UniProt P30613, R532W); test: PKR mutant assay, PKR R532W AC50; conditions: mutant PKR R532W enzyme
# Protocol: (§1) • PKR or PKR mutant enzyme solution was diluted in assay buffer. • 2 μL of test compound was added into wells first, and then 180 μL reaction mix was added. • Reactions mixture with test compound was assembled except for ADP, and plates were stored for 60 minutes at room temperature. • 20 uL ADP was added to start reaction at room temperature and reaction progress was measured as changes in absorbance at 340 nm wavelength at room temperature.
# (§2) Test Compound Preparation: • Test compound stock was made at 100x concentration in 100% DMSO (10 mM) • 1 to 3 dilutions were made for 11 points (i.e. 50 μl of first concentration added to 100 μl 100% DMSO to yield 3.33 mM, 50 μl of this added to 100 μl DMSO to yield 1.11 mM, and so forth) • 1 to 100 dilution into assay (2 μl in 200 μl) yielded starting concentration of 100 μM, decreasing 3 fold for 11 points • Assay Buffer: 100 mM KCl, 50 mM Tris 7.5, 5 mM MgCl2, 1 mM DTT, 0.03% BSA • Reaction Mixture: PKR mutant enzyme: 80-400 ng/well; ADP: 0.22-1.65 mM; PEP: 0.1-0.5 mM; NADH:180 uM; LDH: 0.5 units (Sigma#59023); DTT: 1 mM; BSA: 0.03%.
# (§3) A compound described herein was diluted with DMSO and tested at 1 μM concentration. The enzyme was diluted in 1× Buffer: (100 mM KCl, 50 mM Tris 7.5, 5 mM MgCl2, 1 mM DTT, 0.03% BSA). 2 μL of compound solution was first added into wells, and then 180 μL of enzyme solution was added. Assays were assembled except for ADP, and plates were stored for 60 minutes at RT. 20 μL ADP was added to start the assay and assay output was evaluated using OD340 at SpectraMax. The assay was run at room temperature. • Final concentration: PKR R532W (100 ng/well), Tris pH 7.5 (50 mM), KCl (100 mM), MgCl2 (5 mM), ADP (0.36 mM), PEP (0.1 mM), NADH (180 μM), LDH (0.5 units, Sigma 59023), DTT (1 mM) and BSA (0.03%).
# PKR R510Q = PKR R510Q (Homo sapiens, UniProt P30613, R510Q); test: PKR mutant assay, PKR R510Q AC50; conditions: mutant PKR R510Q enzyme
# Protocol: as §1
# as §2, with “0.03%. […]” for “0.03%.”
# PKR WT = PKR WT (Homo sapiens, UniProt P30613); test: PKR WT enzymatic assay AC50; conditions: wild type PKR
# Protocol: as §1, §2
# as §3, with “wt” for “R532W”, “(0.48” for “(0.36”, “(0.15” for “(0.1”
# Chain of PKR R510Q (P30613 whole entry R510Q): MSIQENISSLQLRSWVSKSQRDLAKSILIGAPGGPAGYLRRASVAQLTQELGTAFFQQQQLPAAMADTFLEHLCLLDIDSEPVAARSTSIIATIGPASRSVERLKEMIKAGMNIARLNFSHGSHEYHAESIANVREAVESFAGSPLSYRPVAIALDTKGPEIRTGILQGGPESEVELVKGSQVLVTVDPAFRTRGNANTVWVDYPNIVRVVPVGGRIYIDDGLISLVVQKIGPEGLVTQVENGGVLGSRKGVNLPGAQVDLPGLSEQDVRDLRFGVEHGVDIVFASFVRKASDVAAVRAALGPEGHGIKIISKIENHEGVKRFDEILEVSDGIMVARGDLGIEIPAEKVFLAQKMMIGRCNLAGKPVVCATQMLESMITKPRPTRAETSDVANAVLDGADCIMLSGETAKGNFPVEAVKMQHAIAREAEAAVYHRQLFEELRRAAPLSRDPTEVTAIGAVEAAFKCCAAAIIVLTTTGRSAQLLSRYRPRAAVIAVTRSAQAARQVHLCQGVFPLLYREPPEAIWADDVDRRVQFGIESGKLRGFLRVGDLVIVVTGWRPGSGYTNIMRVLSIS
# Chain of PKR WT (P30613 whole entry): as the sequence (P30613 whole entry R510Q) above, with Q510R counted along it
# Chain of PKR R532W (P30613 whole entry R532W): as the sequence (P30613 whole entry R510Q) above, with Q510R, R532W counted along it
SMILES,AC50 (PKR R532W),AC50 (PKR R510Q),AC50 (PKR WT)
"Cc1cccc(CC2(O)CN(C(=O)c3ccc(NS(=O)(=O)c4cccc5cccnc45)cc3)C2)n1 [Compound 56, N-(4-(3-hydroxy-3-((6-methylpyridin-2-yl)methyl)azetidine-1-carbonyl)phenyl)quinoline-8-sulfonamide]",101 to 1000 nM,> 10 µM,1010 to 10000 nM
"O=C(c1ccc(NS(=O)(=O)c2cccc3cccnc23)cc1)N1CC(O)(C2CC2)C1 [Compound 33, N-(4-(3-cyclopropyl-3-hydroxyazetidine-1-carbonyl)phenyl)quinoline-8-sulfonamide]",1010 to 10000 nM,> 10 µM,1010 to 10000 nM
"O=C(c1ccc(NS(=O)(=O)c2cccc3cccnc23)cc1)N1CC(O)(CCO)C1 [Compound 38, N-(4-(3-hydroxy-3-(2-hydroxyethyl)azetidine-1-carbonyl)phenyl)quinoline-8-sulfonamide]",> 10000 nM,> 10 µM,1010 to 10000 nM
O=C(c1ccc(NS(=O)(=O)c2ccc(OC(F)(F)F)cc2)cc1)N1CC(O)(Cc2ccccc2)C1 [Compound 65],> 10000 nM,,> 10000 nM
"CC(O)C1(O)CN(C(=O)c2ccc(NS(=O)(=O)c3cccc4cccnc34)cc2)C1 (stereo not shown) [Compound 39, N-(4-(3-hydroxy-3-(1-hydroxyethyl)azetidine-1-carbonyl)phenyl)quinoline-8-sulfonamide]",> 10000 nM,> 10 µM,> 10000 nM
"O=C(c1ccc(NS(=O)(=O)c2cccc3cccnc23)cc1)N1CC(O)(c2ccc(F)cc2)C1 [Compound 14, N-(4-(3-(4-fluorophenyl)-3-hydroxyazetidine-1-carbonyl)phenyl)quinoline-8-sulfonamide]",101 to 1000 nM,1.01 to 10 µM,101 to 1000 nM
CN1C(=O)Cc2cc(S(=O)(=O)Nc3ccc(C(=O)N4CC(O)(Cc5ccccc5)C4)cc3)ccc21 [Compound 66],> 10000 nM,,> 10000 nM
"O=C(c1ccc(NS(=O)(=O)c2ccc(F)cc2F)cc1)N1CC(O)(c2cccc(C(F)(F)F)c2)C1 [Compound 42, 2,4-difluoro-N-(4-(3-hydroxy-3-(3-(trifluoromethyl)phenyl)azetidine-1-carbonyl)phenyl)benzenesulfonamide]",> 10000 nM,> 10 µM,> 10000 nM
O=C(c1ccc(NS(=O)(=O)c2cccc3nonc23)cc1)N1CC(O)(Cc2ccccc2)C1 [Compound 69],> 10000 nM,> 10 µM,> 10000 nM
"COc1cccnc1C1(O)CN(C(=O)c2ccc(NS(=O)(=O)c3cccc4cccnc34)cc2)C1 [Compound 21, N-(4-(3-hydroxy-3-(3-methoxypyridin-2-yl)azetidine-1-carbonyl)phenyl)quinoline-8-sulfonamide]",,1.01 to 10 µM,1010 to 10000 nM
"O=C(c1ccc(NS(=O)(=O)c2cccc3cccnc23)cc1)N1CC(O)(c2ncccc2OC(F)F)C1 [Compound 25, N-(4-(3-(3-(difluoromethoxy)pyridin-2-yl)-3-hydroxyazetidine-1-carbonyl)phenyl)quinoline-8-sulfonamide]",,1.01 to 10 µM,101 to 1000 nM
"O=C(c1ccc(NS(=O)(=O)c2cccc3cccnc23)cc1)N1CC(O)(c2cccnc2F)C1 [Compound 18, N-(4-(3-(2-fluoropyridin-3-yl)-3-hydroxyazetidine-1-carbonyl)phenyl)quinoline-8-sulfonamide]",101 to 1000 nM,1.01 to 10 µM,101 to 1000 nM
"CCCC1(O)CN(C(=O)c2ccc(NS(=O)(=O)c3cccc4cccnc34)cc2)C1 [Compound 36, N-(4-(3-hydroxy-3-propylazetidine-1-carbonyl)phenyl)quinoline-8-sulfonamide]",1010 to 10000 nM,> 10 µM,101 to 1000 nM
Cn1c(=O)oc2cc(S(=O)(=O)Nc3ccc(C(=O)N4CC(O)(Cc5ccccc5)C4)cc3)ccc21 [Compound 70],> 10000 nM,> 10 µM,> 10000 nM
"O=C(c1ccc(NS(=O)(=O)c2cccc3cccnc23)cc1)N1CC(O)(Cc2cccc(F)n2)C1 [Compound 54, N-(4-(3-((6-fluoropyridin-2-yl)methyl)-3-hydroxyazetidine-1-carbonyl)phenyl)quinoline-8-sulfonamide]",101 to 1000 nM,1.01 to 10 µM,101 to 1000 nM
"O=C(c1ccc(NS(=O)(=O)c2cccc3cccnc23)cc1)N1CC(O)(c2ccccc2C(F)(F)F)C1 [Compound 6, N-(4-(3-hydroxy-3-(2-(trifluoromethyl)phenyl)azetidine-1-carbonyl)phenyl)quinoline-8-sulfonamide]",101 to 1000 nM,0.101 to 1 µM,101 to 1000 nM
"CC(C)C1(O)CN(C(=O)c2ccc(NS(=O)(=O)c3cccc4cccnc34)cc2)C1 [Compound 32, N-(4-(3-hydroxy-3-isopropylazetidine-1-carbonyl)phenyl)quinoline-8-sulfonamide]",1010 to 10000 nM,> 10 µM,1010 to 10000 nM
"O=C(c1ccc(NS(=O)(=O)c2cccc3cccnc23)cc1)N1CC(O)(c2ccccc2F)C1 [Compound 3, N-(4-(3-(2-fluorophenyl)-3-hydroxyazetidine-1-carbonyl)phenyl)quinoline-8-sulfonamide]",101 to 1000 nM,1.01 to 10 µM,101 to 1000 nM
"O=C(c1ccc(NS(=O)(=O)c2ccccc2C(F)(F)F)cc1)N1CC(O)(Cc2ccccc2)C1 [Compound 51, N-(4-(3-benzyl-3-hydroxyazetidine-1-carbonyl)phenyl)-2-(trifluoromethyl)benzenesulfonamide]",> 10000 nM,> 10 µM,> 10000 nM
"O=C(c1ccc(NS(=O)(=O)c2cccc3ncccc23)cc1)N1CC(O)(c2cccc(C(F)(F)F)c2)C1 [Compound 44, N-(4-(3-hydroxy-3-(3-(trifluoromethyl)phenyl)azetidine-1-carbonyl)phenyl)quinoline-5-sulfonamide]",1010 to 10000 nM,1.01 to 10 µM,1010 to 10000 nM
"O=C(c1ccc(NS(=O)(=O)c2ccc(C(F)(F)F)cc2)cc1)N1CC(O)(Cc2ccccc2)C1 [Compound 50, N-(4-(3-benzyl-3-hydroxyazetidine-1-carbonyl)phenyl)-4-(trifluoromethyl)benzenesulfonamide]",> 10000 nM,,
"O=C(c1ccc(NS(=O)(=O)c2cccc3cnccc23)cc1)N1CC(O)(Cc2ccccc2)C1 [Compound 48, N-(4-(3-benzyl-3-hydroxyazetidine-1-carbonyl)phenyl)isoquinoline-5-sulfonamide]",> 10000 nM,,> 10000 nM
"O=C(c1ccc(NS(=O)(=O)c2cccc3cccnc23)cc1)N1CC(O)(c2ncccc2Cl)C1 [Compound 23, N-(4-(3-(3-chloropyridin-2-yl)-3-hydroxyazetidine-1-carbonyl)phenyl)quinoline-8-sulfonamide]",,> 10 µM,1010 to 10000 nM
"O=C(c1ccc(NS(=O)(=O)c2cccc3cccnc23)cc1)N1CC(O)(c2ncccc2C(F)(F)F)C1 [Compound 24, N-(4-(3-hydroxy-3-(3-(trifluoromethyl)pyridin-2-yl)azetidine-1-carbonyl)phenyl)quinoline-8-sulfonamide]",,1.01 to 10 µM,101 to 1000 nM
Cc1cccnc1C1(O)CN(C(=O)c2ccc(NS(=O)(=O)c3cccc4cccnc34)cc2)C1 [Compound 59],,> 10 µM,
